In patent US20190119348A1, “PARATHYROID HORMONE RECEPTOR 1 ANTAGONIST AND INVERSE AGONIST POLYPEPTIDES AND METHODS OF THEIR USE” (The General Hospital Corporation, priority 2016, published 2019):
Where a SMILES comes first, the peptide text is derived from it. [ ]: non-standard residue; d: D form. Nle = CCCC[C@H](N)C(=O)O

Target: T1, human PTHR1-H223R (Homo sapiens, UniProt Q03431, H223R)
T1 construct: expressed in transfected cells; host or cells: GHR-10 (HEK-293 stably expressing GloSensor and PTHR1-H223R)
T1 sequence (Q03431 27-593 H223R): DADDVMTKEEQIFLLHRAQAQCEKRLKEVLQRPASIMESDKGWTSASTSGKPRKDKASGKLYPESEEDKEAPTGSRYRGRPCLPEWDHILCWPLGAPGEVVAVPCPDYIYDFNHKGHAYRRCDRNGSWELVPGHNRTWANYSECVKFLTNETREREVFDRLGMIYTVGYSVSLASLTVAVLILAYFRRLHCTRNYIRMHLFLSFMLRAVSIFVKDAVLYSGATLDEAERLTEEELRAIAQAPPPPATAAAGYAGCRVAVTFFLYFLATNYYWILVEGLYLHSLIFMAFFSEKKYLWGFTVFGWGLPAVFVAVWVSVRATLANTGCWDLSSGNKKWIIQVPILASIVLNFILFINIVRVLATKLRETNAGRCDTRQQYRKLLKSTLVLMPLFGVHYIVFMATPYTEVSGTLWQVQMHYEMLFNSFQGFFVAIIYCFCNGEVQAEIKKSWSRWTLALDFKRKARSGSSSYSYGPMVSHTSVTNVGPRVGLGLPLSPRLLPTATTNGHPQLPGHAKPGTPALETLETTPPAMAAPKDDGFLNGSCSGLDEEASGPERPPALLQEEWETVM
Assay: Inverse agonism on basal cAMP signaling in GHR-10 cells
Format: cell-based
Settings: for inverse agonist properties on constitutively active PTHR1-H223R (basal cAMP): GHR-10 cells (HEK293/GloSensor); for Reduction of basal cAMP, % vehicle, After ligand washout / Reduction of basal cAMP, % vehicle, Ligand @ −6M: GHR-10 cells, from AUC, representative experiment; for Reduction of basal cAMP, % vehicle, After ligand washout: 26 minutes after washout of unbound ligand; for Reduction of basal cAMP, % vehicle, Ligand @ −6M: peptide 1×10^−6 M for 24 minutes
Method: cAMP signaling was assessed in the HEK293-derived or SaOS2-derived cell lines stably expressing the luciferase-based GloSensor™ cAMP reporter (Hattersley et al., Paper presented at: Novel Signaling Mechanisms and Bone Cell Biology 2014; Binkowski et al., Methods in molecular biology. 756:263-271). HEK-293 cells were further transfected to stably express the hPTHR1, hPTHR1-H223R, or hPTHR1-T410P. The cells were seeded into 96-well white plates and were assayed 24 to 48 hours post-confluency. Assays were performed at room temperature in CO2-independent culture media (Life Technologies, Corp., Carlsbad, Calif.) containing 0.1% BSA (CIDB). The cells were pre-loaded with luciferin (0.5 mM in CIDB) for 15 minutes, then PTH peptides were added at varying concentrations. cAMP-dependent luminescence was measured at two-minute intervals using a PerkinElmer Envision plate reader. The time at which maximum luminescence (cps) observed with agonist alone, typically at 10-20 minutes after agonist addition, was used to obtain data from wells containing antagonist with or without agonist, to thus generate antagonist ligand dose-response curves. The resulting cps values were then plotted against ligand concentration using GraphPad Prism 7.0 software and a four-parameter logistics curve fitting equation, which yielded parameters of inhibitory potency (pIC50).
These experiments were performed in HEK-293 cells stably transfected to express the GloSensor™ cAMP reporter along with a constitutively active mutant human PTHR1. The HEK-293 cells stably expressing GloSensor™ cAMP reporter along with a constitutively active mutant human PTHR1-H223R are GHR-10 cells. The HEK-293 cells stably expressing GloSensor™ cAMP reporter along with a constitutively active mutant human PTHR1-T410P are GTP-4 cells. The HEK-293 cells stably expressing GloSensor™ cAMP reporter along with a WT-PTHR1 are GP-2.3 cells. GP-2.3 cells were used as control. […] Effects on basal cAMP signaling over time were assessed during periods of direct ligand addition (FIGS. 15A-15F). The measurements were performed by recording GloSensor™ luminescence as counts per second (cps) using a PerkinElmer Envision plate reader. The data are illustrated in FIGS. 15A-15F. Data are from triplicate wells (means±SEM) of a single experiment representative of two others.
Persistence of the antagonist/inverse agonist effects (prolonged action) as follows. Effects of eight peptides on basal and PTH(1-34)-stimulated cAMP signaling by PTHR-H223R were assessed in GHR-10 cells (HEK-293-derived cells stably expressing glosensor cAMP reporter and PTHR1-H223R). Time courses of changes in cAMP levels were recorded in three consecutive phases:
1) after initial addition of a candidate antagonist/inverse agonist (1×10^−6 M-1×10^−9 M) to cells pre-loaded for […] with luciferin (left column);
2) after removal of unbound inverse agonist by extensive wash-out with buffer and replenishment with fresh luciferin-containing buffer (middle column); and
Control wells were treated with vehicle. GloSensor™ luminescence, as counts per second (cps), was recorded using a PerkinElmer Envision plate reader. Data are from duplicate wells (means±SEM) of a single experiment representative of two others. The results are illustrated in Table 7 and in FIGS. 16A-16C, 17A-17C, 18A-18C, 19A-19C, 20A-20C, 21A-21C, 22A-22C, and 23A-23C.
GHR10 cells were treated with vehicle or vehicle containing the indicated peptide for 24 minutes and cAMP-dependent luminescence was recorded at two-minute intervals. The cells were then washed to remove unbound ligand and media containing fresh luciferin was added, and cAMP luminescence was recorded for another 26 minutes. Percentage reduction was calculated from the area-under-the-curve (AUC) values derived from the time course plots using the equation: […]

## CC[C@H](C)[C@H](N)C(=O)N[C@@H](CCC(N)=O)C(=O)N[C@@H](CC(C)C)C(=O)N[C@@H](CCSC)C(=O)N[C@@H](Cc1c[nH]cn1)C(=O)N[C@@H](CCC(N)=O)C(=O)N[C@@H](CCCNC(=N)N)C(=O)N[C@H](Cc1c[nH]c2ccccc12)C(=O)N[C@@H](CCCCN)C(=O)N[C@@H](Cc1c[nH]c2ccccc12)C(=O)N[C@H](C(=O)N[C@@H](CCC(N)=O)C(=O)N[C@@H](CC(=O)O)C(=O)N[C@@H](C)C(=O)N[C@@H](CCCNC(=N)N)C(=O)N[C@@H](CCCNC(=N)N)C(=O)N[C@@H](CCCNC(=N)N)C(=O)N[C@@H](C)C(=O)N[C@@H](Cc1c[nH]c2ccccc12)C(=O)N[C@@H](CC(C)C)C(=O)N[C@@H](Cc1c[nH]cn1)C(=O)N[C@@H](CCCCN)C(=O)N[C@@H](CC(C)C)C(=O)N[C@H](C(=O)N[C@@H](C)C(=O)N[C@@H](CCC(=O)O)C(=O)N[C@H](C(=O)N[C@@H](Cc1c[nH]cn1)C(=O)N[C@H](C(=O)N[C@@H](C)C(=O)N[C@@H](CCC(=O)O)C(=O)N[C@H](C(N)=O)[C@@H](C)CC)[C@@H](C)O)[C@@H](C)CC)[C@@H](C)CC)[C@@H](C)CC [compound 1949, dW12, W23-LA-PTH(5-36)] (H-IQLMHQR[dW]KWIQDARRRAWLHKLIAEIHTAEI-NH2; N-terminus assumed)
  inverse agonist properties on constitutively active PTHR1-H223R (basal cAMP): exhibited inverse agonist properties
  Reduction of basal cAMP, % vehicle, After ligand washout: 30 % vehicle
  Reduction of basal cAMP, % vehicle, Ligand @ −6M: 41 % vehicle

## CC[C@H](C)[C@H](NC(=O)[C@H](CCC(=O)O)NC(=O)[C@H](C)NC(=O)[C@@H](NC(=O)[C@H](Cc1c[nH]cn1)NC(=O)[C@@H](NC(=O)[C@H](CCC(=O)O)NC(=O)[C@H](C)NC(=O)[C@@H](NC(=O)[C@H](CC(C)C)NC(=O)[C@H](CCCCN)NC(=O)[C@H](Cc1c[nH]cn1)NC(=O)[C@H](CC(C)C)NC(=O)[C@H](Cc1c[nH]c2ccccc12)NC(=O)[C@H](C)NC(=O)[C@H](CCCNC(=N)N)NC(=O)[C@H](CCCNC(=N)N)NC(=O)[C@H](CCCNC(=N)N)NC(=O)[C@H](C)NC(=O)[C@H](CC(=O)O)NC(=O)[C@H](CCC(N)=O)NC(=O)[C@@H](NC(=O)[C@H](Cc1c[nH]c2ccccc12)NC(=O)[C@H](CCCCN)NC(=O)[C@@H](Cc1c[nH]c2ccccc12)NC(=O)[C@H](CCCNC(=N)N)NC(=O)[C@H](CCC(N)=O)NC(=O)[C@H](Cc1c[nH]cn1)NC(=O)[C@H](CCSC)NC(=O)[C@@H](N)CC(C)C)[C@@H](C)CC)[C@@H](C)CC)[C@@H](C)CC)[C@@H](C)O)C(N)=O [compound 1990, dW12, W23-LA-PTH(7-36)-1990] (H-LMHQR[dW]KWIQDARRRAWLHKLIAEIHTAEI-NH2; N-terminus assumed)
  inverse agonist properties on constitutively active PTHR1-H223R (basal cAMP): inverse agonist response
  Reduction of basal cAMP, % vehicle, After ligand washout: 39 % vehicle
  Reduction of basal cAMP, % vehicle, Ligand @ −6M: 50 % vehicle

## CCCC[C@H](NC(=O)[C@@H](N)CC(C)C)C(=O)N[C@@H](Cc1c[nH]cn1)C(=O)N[C@@H](CCC(N)=O)C(=O)N[C@@H](CCCNC(=N)N)C(=O)N[C@H](Cc1c[nH]c2ccccc12)C(=O)N[C@@H](CCCCN)C(=O)N[C@@H](Cc1c[nH]c2ccccc12)C(=O)N[C@H](C(=O)N[C@@H](CCC(N)=O)C(=O)N[C@@H](CC(=O)O)C(=O)N[C@@H](C)C(=O)N[C@@H](CCCNC(=N)N)C(=O)N[C@@H](CCCNC(=N)N)C(=O)N[C@@H](CCCNC(=N)N)C(=O)N[C@@H](C)C(=O)N[C@@H](Cc1c[nH]c2ccccc12)C(=O)N[C@@H](CC(C)C)C(=O)N[C@@H](Cc1c[nH]cn1)C(=O)N[C@@H](CCCCN)C(=O)N[C@@H](CC(C)C)C(=O)N[C@H](C(=O)N[C@@H](C)C(=O)N[C@@H](CCC(=O)O)C(=O)N[C@H](C(=O)N[C@@H](Cc1c[nH]cn1)C(=O)N[C@H](C(=O)N[C@@H](C)C(=O)N[C@@H](CCC(=O)O)C(=O)N[C@H](C(N)=O)[C@@H](C)CC)[C@@H](C)O)[C@@H](C)CC)[C@@H](C)CC)[C@@H](C)CC [compound 1992, Nle8, dW12, W23-LA-PTH(7-36)-1992] (H-L[Nle]HQR[dW]KWIQDARRRAWLHKLIAEIHTAEI-NH2; N-terminus assumed)
  inverse agonist properties on constitutively active PTHR1-H223R (basal cAMP): inverse agonist response
  Reduction of basal cAMP, % vehicle, After ligand washout: 40 % vehicle
  Reduction of basal cAMP, % vehicle, Ligand @ −6M: 51 % vehicle

## CCCC[C@H](NC(=O)[C@@H](N)CC(C)C)C(=O)N[C@@H](Cc1c[nH]cn1)C(=O)N[C@@H](CCC(N)=O)C(=O)N[C@@H](CC(C)C)C(=O)N[C@H](Cc1c[nH]c2ccccc12)C(=O)N[C@@H](CCCCN)C(=O)N[C@@H](Cc1c[nH]c2ccccc12)C(=O)N[C@H](C(=O)N[C@@H](CCC(N)=O)C(=O)N[C@@H](CC(=O)O)C(=O)N[C@@H](C)C(=O)N[C@@H](CCCNC(=N)N)C(=O)N[C@@H](CCCNC(=N)N)C(=O)N[C@@H](CCCNC(=N)N)C(=O)N[C@@H](C)C(=O)N[C@@H](Cc1c[nH]c2ccccc12)C(=O)N[C@@H](CC(C)C)C(=O)N[C@@H](Cc1c[nH]cn1)C(=O)N[C@@H](CCCCN)C(=O)N[C@@H](CC(C)C)C(=O)N[C@H](C(=O)N[C@@H](C)C(=O)N[C@@H](CCC(=O)O)C(=O)N[C@H](C(=O)N[C@@H](Cc1c[nH]cn1)C(=O)N[C@H](C(=O)N[C@@H](C)C(=O)N[C@@H](CCC(=O)O)C(=O)N[C@H](C(N)=O)[C@@H](C)CC)[C@@H](C)O)[C@@H](C)CC)[C@@H](C)CC)[C@@H](C)CC [compound 1997, Nle8,L11, dW12, W23-LA-PTH(7-36)-1997] (H-L[Nle]HQL[dW]KWIQDARRRAWLHKLIAEIHTAEI-NH2; N-terminus assumed)
  Reduction of basal cAMP, % vehicle, After ligand washout: 71 % vehicle
  Reduction of basal cAMP, % vehicle, Ligand @ −6M: 70 % vehicle
